Laboratory results taken from US20080015251A1, “Means and method for treating lipotoxicity and other metabolically related phenomena” (Yissum Research Development Co., of The Hebrew University …, priority 2006, published 2008).
Entries after “also recorded” stand apart in the source; their conditions may differ. Marks after values point to notes of the source that are not given here.

How the values were obtained:
J774.2 macrophages [1] = assay: Cell viability by propidium iodide exclusion (membrane integrity), flow cytometry; type: cell-based, Murine; conditions: for protection against TG-induced lipotoxicity (rate of cell death): AA 0.5 mM, resv 0.2 mM, querc 0.2 mM, lyc 10 AM, carot 10 AM, toc 0.2 mM, LA 0.25 mM, Se 1 AM (FIG. 8A)
Experimental: Murine J774.2 macrophages were cultured in RPMI medium enriched with 10% fetal calf serum, 1% glutamine, and 1% penicillin-streptomycin. […] Prior to experimental procedures, macrophages were seeded on 6-well plates at a concentration of 50,000 cells/ml.
The physiological range of TG in plasma is up to 1.5 mg/ml. […] Other agents, such as antioxidants or cycloheximide (CH), were added as specified in the relevant figure legends.
Cell membrane integrity was detected as previously described. Briefly, cells were stained with 2 Ag/ml propidium iodide (PI) and measured by flow cytometry, (FACS Calibur, Becton Dickinson, Calif.) at the following fluorescence setting: excitation at 488 nm and emission at 575 nm. Data were collected from 10,000 cells.

rat isolated hepatocytes [2] = assay: Reduced glutathione (GSH) by HPLC; type: cell-based
Experimental: GSH was measured using HPLC (15). […] Detection was made by an electrochemical detector. The results were adjusted to protein levels of the samples.

rat isolated hepatocytes [3] = assay: Nitrite in culture media (Griess reaction); type: cell-based; conditions: for effect on LE inhibition of nitrite levels: 0.1% LE, NAC 3 mmol/L, ascorbate 3 mmol/L, resveratrol 600 μmol/L
Experimental: (§1) Rotenone, S nitroso-N-acetyl-penicillamine (SNAP), buthionine sulfoximine (BSO), anti oxidants, or TNF-α were added to the culture medium in specific experiments. At the end of the experiment, the medium was collected and the cells were harvested for further assays.
Nitrite in culture media was measured by the Griess reaction (21). The values obtained were compared with standards of sodium nitrite dissolved in the cell culture media.

caspase-3 = assay: Caspase-3 (DEVDase) activity, Ac-DEVD-AMC substrate; type: cell-based, Murine; conditions: pretreatment for 24 h with CH (FIG. 6)
Experimental: For analysis of caspase activity, cells were incubated for 2 h in ice-cold PBS containing 0.5% Triton X-100 and 5 mM dithiothreitol (DTT). The suspension of permeabilized cells was agitated slightly and centrifuged at 14,000 g. The clear supernatant was tested for caspase-3 activity as previously described, using the caspase-3 substrate Ac-DEVD-AMC (Calbiochem, Darmstadt, Germany). Incubation was conducted in 200 Al of reaction mixture containing approximatelyl mg sample protein, in the dark, at 308 C for 4 h (linear phase of the reaction). Caspase-3 activity was expressed as arbitrary fluorescence units (AU) per mg. protein.

J774.2 macrophages [4] = assay: Intracellular ROS, H2DCF-DA fluorescent probe, FACS; type: cell-based, Murine; conditions: for ROS production in TG-treated cells: 0.1% LE 24 h, rotenone 40 AM added 5 min before probe, FCCP 15 min (FIG. 2B)
Experimental: Murine J774.2 macrophages were cultured in RPMI medium enriched with 10% fetal calf serum, 1% glutamine, and 1% penicillin-streptomycin. Cells were maintained in an incubator with temperature (378C) and CO2 (5%) control. Prior to experimental procedures, macrophages were seeded on 6-well plates at a concentration of 50,000 cells/ml.
LE was added to the cell culture at a concentration of 0.1% (w/v) TG (1 mg lipids/ml). The physiological range of TG in plasma is up to 1.5 mg/ml. The cells were incubated with the LE for 12, 24, or 48 h, and then washed twice with phosphate-buffered saline (PBS), and intracellular ROS and cell viability were measured. Other agents, such as antioxidants or cycloheximide (CH), were added as specified in the relevant figure legends.
Intracellular ROS were detected using a H2DCF-DA fluorescent probe. The cells were incubated with 25 AMH2DCF-DA for 30 min at room temperature. The fluorescence was measured in a FACS, with excitation at 488 nm and emission at 530 nm. Data were collected from 10,000 cells.

eNOS [5] = assay: eNOS protein expression, Western blot; type: cell-based, rat; conditions: 0.1% LE, NAC 3 mmol/L, 48 h, data not shown
Experimental: (§2) Cells were scraped and lysed in 750 μΛ of lysis buffer (20 mmol/L Tris, pH 7.8; 0.1% Nonidet P-40; 100 mmol/L NaCl; 50 mmol/L NaF; 10% glycerol, 1 mmol/L sodium orthovanadate). Lysates were centrifuged at 8500×g for 10 min. The supernatant was collected and used for the analysis of eNOS and iNOS.
(§3) Protein concentration was determined by the Bradford method (20) using bovine serum albumin as a standard. Samples were boiled for 5 min with SDS sample buffer; 60 μg of protein per sample was loaded onto a 10% SDS-polyacrylamide gel. Electroblots were blocked in Tris buffer NaCl-Tween (TBST) containing 5% skim milk powder at room temperature. Western blot analysis with a specific antibody against iNOS (Biomol), eNOS, p65, and p-c-Jun antibodies (Santa Cruz Biotechnology) was carried out. The antibodies were diluted in TBST buffer+5% skim milk and left overnight at 4° C. After a TBST washing procedure, the blots were incubated with horseradish-peroxidase labeled anti-rabbit antibody (Pierce) for 1 h at room temperature. The immune reaction was detected by enhanced chemiluminescence. Bands were quantified by scanning densitometry and expressed as arbitrary units.

iNOS [6] = assay: iNOS mRNA level by RT-PCR; type: cell-based, rat; conditions: 0.1% LE, NAC 3 mmol/L, 48 h
Experimental: (§4) Total RNA was prepared using TriReagent. Analyses of mRNA levels of iNOS, eNOS, and gylceraldehyde-3-phosphate dehydrogenase (GAPDH) were performed using RT-PCR. The synthesis of cDNA was carried out using a Reverse-it (ABgene) first-strand synthesis kit. The reaction was conducted at 40-55° C. for 50 min. Finally, the reaction was terminated by incubation at 70° C. for 15 min. PCR amplification was performed in the Biometra T personal cycler instrument (Biometra). Cycles were performed at 94° C. for 30 s followed by 57° C. for 30 s and 72° C. for 30 s. cDNA was incubating with ReddyMix and gene-specific PCR primers, designed using Primer 3 software (Whitehead Institute for Biomedical Research).
(§5) The primers were synthesized by MBC: eNOS, forward primer, 5′-[…]-3′, and reverse primer, 5′-[…]-3′; INOS, forward primer, 5′[…]-3′, and reverse primer, 5′-[…]-3′. As a loading control, RNA was hybridized with a probe of the housekeeping gene, GAPDH, forward primer, 5′-[…]-3′, and reverse primer, 5′-[…]-3′.
(§6) PCR products were electrophoresed on […] gel containing 5 µL ethidium bromide, and the gel image was quantified using Doc-it gel image analysis program (UVP). The number of cycles for all the genes was selected within the linear part of a standard curve.

iNOS [7] = assay: iNOS protein expression, Western blot; type: cell-based, rat; conditions: 0.1% LE, NAC 3 mmol/L, 48 h
Experimental: as §2, §3

eNOS [8] = assay: eNOS mRNA level by RT-PCR; type: cell-based, rat; conditions: 0.1% LE, NAC 3 mmol/L, 48 h
Experimental: as §4, §5, §6

rat isolated hepatocytes [9] = assay: Intracellular ROS, DCF fluorescence, flow cytometer; type: cell-based
Experimental: as §1, with “Isolated hepatocytes were seeded at 2 […]10^9 cells/L; after 4 h, the culture medium was replaced and cells were incubated for 48 h with 0.01-0.1% LE. Rotenone,” for “Rotenone,”
Cell membrane integrity (15), TG accumulation (22), and intracellular ROS levels (23, 24) were detected by flow cytometer (FACScalibur BD). Hepatocytes were stained with 2 mg/L DNA-interchelating dye propidium iodide, which is excluded by viable cells; with 1 mg/L Nile red, which accumulates in intracellular lipid droplets; or with […] dichlorodihydrofluorescein diacetate (H2DCF-DA), a probe that has high reactivity to hydrogen peroxide, lipid hydroperoxide, and hydroxyl radicals and low reactivity to superoxide anions (23,24). Fluorescence settings were as follows: excitation at 488 nm and emission at 575 nm for propidium iodide and Nile red and 488 nm and recorded at 530 nm for H2DCF-DA. Data were collected from 10,000 cells.

[10] = with or without 0.1% LE and BSO, 48 h (Table 6)
[11] = with or without 0.1% LE and rotenone, 48 h (Table 5)

Compound: O=C(O)CCCCC1CCSS1 (racemic) [racemic lipoic acid, lipoic acid]
- protection against TG-induced lipotoxicity (rate of cell death) (J774.2 macrophages [1]; 0.1% LE): did not have any protective effect or even enhanced the rate of cell death

Compound: CCCCS(=N)(=O)CCC(N)C(=O)O (stereo not drawn) [BSO, buthionine sulfoximine]
- GSH (rat isolated hepatocytes [2]; cells treated with BSO): decreased
- GSH (rat isolated hepatocytes [2]; [10]): 2.2 ± 0.4 nmol/mg protein
- nitrite levels (rat isolated hepatocytes [3]; cells treated with BSO): decreased
- Nitrite (rat isolated hepatocytes [3]; [10]): 2.3 ± 0.3^c μmol/106 cells

Compound: C[C@@H]1C[C@@H]([C@H](O)CC2CC(=O)NC(=O)C2)C(=O)[C@@H](C)C1 [CH, cycloheximide]
- effect of protein-synthesis inhibition on TG cell-death effect (J774.2 macrophages [1]; CH 0.1 AM then TG, 48 h (FIG. 6B)): does not prevent the cell-death effect of TG
- caspase-3 activity (caspase-3): increased caspase-3 activity
- ROS production, CH treatment alone (J774.2 macrophages [4]; CH 0.1 AM (FIG. 6)): decreased ROS production

Compound: N#CC(C#N)=NNc1ccc(OC(F)(F)F)cc1 [FCCP]
- ROS production in TG-treated cells (J774.2 macrophages [4]): decreased cellular ROS production but not as effectively as rotenone

Compound: CC(=O)N[C@@H](CS)C(=O)O [NAC, N-acetyl-L-cysteine]
- effect on LE-induced reduction of eNOS protein levels (eNOS [5]): attenuate the LE-induced reduction
- protection against TG-induced cell death (J774.2 macrophages [1]; 0.1% LE, NAC 0.5 mM (FIG. 7B)): protected the cells against TG-induced cell death
- effect on LE-induced reduction of iNOS mRNA transcription (iNOS [6]): attenuate the LE-induced reduction
- TG induced ROS production (J774.2 macrophages [4]; 0.1% LE, NAC 0.5 mM (FIG. 7A)): suppressed
- effect on LE-induced reduction of iNOS protein levels (iNOS [7]): attenuate the LE-induced reduction
- effect on LE-induced reduction of eNOS mRNA transcription (eNOS [8]): attenuate the LE-induced reduction
- effect on LE inhibition of nitrite levels (rat isolated hepatocytes [3]): increased nitrite levels compared with controls; also recorded: Inhibition of nitrite production was abolished

Compound: CC(=O)N[C@H](C(=O)O)C(C)(C)SN=O [SNAP, S-nitroso-N-acetyl-penicillamine]
- effect on ROS levels (rat isolated hepatocytes [9]; SNAP in culture medium 48 h, presence or absence of LE): had no effect on ROS levels
- ROS (DCF fluorescence) (rat isolated hepatocytes [9]; with or without 0.1% LE and SNAP, 48 h (Table 4)): SNAP 133 AU

Compound: CC(C)(C)OO [TBH, tert-butyl hydroperoxide]
- cell viability after 48 h of exposure (J774.2 macrophages [1]; TBH 12 AM or LE 0.1%, 48 h (FIG. 5)): No loss in viability

Compound: Cc1c(C)c2c(c(C)c1O)CC[C@@](C)(CCC[C@H](C)CCC[C@H](C)CCCC(C)C)O2 [atocopherol, a-tocopherol]
- protection against TG-induced lipotoxicity (rate of cell death) (J774.2 macrophages [1]; 0.1% LE): did not have any protective effect or even enhanced the rate of cell death

Compound: CC1=C(/C=C/C(C)=C/C=C/C(C)=C/C=C/C=C(C)/C=C/C=C(C)/C=C/C2=C(C)CCCC2(C)C)C(C)(C)CCC1 [h-carotene]
- protection against TG-induced lipotoxicity (rate of cell death) (J774.2 macrophages [1]; 0.1% LE): did not have any protective effect or even enhanced the rate of cell death

Compound: CC(C)=CCC/C(C)=C/C=C/C(C)=C/C=C/C(C)=C/C=C/C=C(C)/C=C/C=C(C)/C=C/C=C(\C)CCC=C(C)C [lycopene]
- protection against TG-induced lipotoxicity (rate of cell death) (J774.2 macrophages [1]; 0.1% LE): did not have any protective effect or even enhanced the rate of cell death

Compound: O=c1c(O)c(-c2ccc(O)c(O)c2)oc2cc(O)cc(O)c12 [quercetin]
- protection against TG-induced lipotoxicity (rate of cell death) (J774.2 macrophages [1]; 0.1% LE): did not have any protective effect or even enhanced the rate of cell death

Compound: Oc1ccc(C=Cc2cc(O)cc(O)c2)cc1 [resveratrol]
- protection against TG-induced lipotoxicity (rate of cell death) (J774.2 macrophages [1]; 0.1% LE): significantly decreased the rate of cell death
- effect on LE inhibition of nitrite levels (rat isolated hepatocytes [3]): partially prevented the reduction in nitrite synthesis

Compound: C=C(C)[C@H]1Cc2c(ccc3c2O[C@@H]2COc4cc(OC)c(OC)cc4[C@@H]2C3=O)O1 [rotenone]
- intracellular ROS levels (rat isolated hepatocytes [9]; incubation with rotenone): increased intracellular ROS levels
- ROS (DCF fluorescence) (rat isolated hepatocytes [9]; [11]): 530 ± 44^a AU
- ROS production in TG-treated cells (J774.2 macrophages [4]): significantly decreased ROS production
- Nitrite (rat isolated hepatocytes [3]; [11]): 2.0 ± 0.2^c μmol/106 cells

Compound: TNF-α
- Nitrite (rat isolated hepatocytes [3]; TNF-α (100 mU) 3 h, with or without 48 h preincubation with 0.1% LE): 2.1 ± 0.1 μmol/106 cells
- Nitrite (rat isolated hepatocytes [3]; TNF-α (100 mU) 6 h, with or without 48 h preincubation with 0.1% LE): 2.1 ± 0.2 μmol/106 cells
- Nitrite (rat isolated hepatocytes [3]; TNF-α (100 mU) 9 h, with or without 48 h preincubation with 0.1% LE): 4.3 ± 0.2 μmol/106 cells
- Nitrite (rat isolated hepatocytes [3]; TNF-α (100 mU) 12 h, with or without 48 h preincubation with 0.1% LE): 6.5 ± 0.2 μmol/106 cells
